Test results: PubChem BioAssay (NCI)
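Exposure lasted 48 hours, with cells grown in 96-well plates and compounds tested at five concentrations. GI50 marks 50% less growth. TGI is the concentration that stops growth completely.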

Assays:
Test in all cases: growth of human tumour cells (NCI), 48 h
[1] = test system: HCC-2998 colon
[2] = test system: HCT-15 colon
[3] = test system: KM12 colon
[4] = test system: M14 melanoma
[5] = test system: MCF7 breast
[6] = test system: SK-MEL-28 melanoma
[7] = test system: SW-620 colon
[8] = test system: UACC-62 melanoma
[9] = test system: NCI/ADR-RES ovarian
[10] = test system: HOP-92 NSCLC

| Compound | TGI [1] [µM] | TGI [2] [µM] | TGI [3] [µM] | TGI [4] [µM] | TGI [5] [µM] | TGI [6] [µM] | TGI [7] [µM] | TGI [8] [µM] | TGI [9] [µM] | TGI [10] [µM] | GI50 [1] [µM] | GI50 [2] [µM] | GI50 [10] [µM] | GI50 [3] [µM] | GI50 [4] [µM] | GI50 [9] [µM] | GI50 [6] [µM] | GI50 [7] [µM] | GI50 [8] [µM] |
| --- | --- | --- | --- | --- | --- | --- | --- | --- | --- | --- | --- | --- | --- | --- | --- | --- | --- | --- | --- |
| CN(C)CCNC(=O)c1cccc2c1Oc1c(cccc1[N+](=O)[O-])O2 | 2.62 | 3.89 | 3.46 | 16.2 | > 100 | 7.87 | 10.2 | 1.77 | – | – | – | – | – | – | – | – | – | – | – |
| CCn1c(SCC(=O)NNC(=S)NC)nc2ccccc2c1=O | > 100 | > 100 | > 100 | > 100 | > 100 | > 100 | > 100 | > 100 | > 100 | – | – | – | – | – | – | – | – | – | – |
| COc1cc2nc(-c3cccs3)[nH]c(=O)c2cc1OC | – | > 100 | > 100 | > 100 | > 100 | > 100 | > 100 | > 100 | > 100 | > 100 | – | – | – | – | – | – | – | – | – |
| CCOC(=O)N(c1ccccc1)N(CC)C(=O)/C(C)=N/Nc1ccc([N+](=O)[O-])cc1 | 32.5 | 30.3 | 29.2 | 31.7 | – | 31.1 | 36.7 | 26.8 | – | 30.3 | – | – | – | – | – | – | – | – | – |
| CCN(CC)c1ccc2cc(C(=O)Nc3ccccn3)c(=N)oc2c1 | > 100 | > 100 | > 100 | > 100 | – | > 100 | > 100 | > 100 | > 100 | > 100 | – | – | – | – | – | – | – | – | – |
| COc1ccc2c(OCc3nnc4ccc(-c5ccccc5)nn34)ccnc2c1 | > 100 | > 100 | > 100 | > 100 | – | > 100 | > 100 | > 100 | > 100 | > 100 | > 100 | > 100 | > 100 | > 100 | > 100 | > 100 | > 100 | > 100 | > 100 |
| C=CCOCn1cc(C)c(=O)[nH]c1=O | > 100 | > 100 | > 100 | > 100 | > 100 | > 100 | > 100 | > 100 | – | – | – | – | – | – | – | – | – | – | – |
| C[C@H](C/C=C/C(C)(C)O)[C@H]1CC[C@@]2(C)[C@@H]3CC[C@H]4C(C)(C)[C@@H](O)CC[C@@]45C[C@@]35CC[C@]12C | – | 83.1 | 77.4 | 44.5 | > 100 | 37.8 | 65.4 | 56 | 19.4 | 26.5 | – | – | – | – | – | – | – | – | – |
| CC(=O)[CH-]C(=O)c1ccccc1.CC(=O)[CH-]C(=O)c1ccccc1.C[C@]12CCC(=O)C=C1CC[C@@H]1C2CC[C@@]2(C)C1CC[C@]2(C)[O-].C[C@]12CCC(=O)C=C1CC[C@@H]1C2CC[C@@]2(C)C1CC[C@]2(C)[O-].Cl.[Ti+4] (some centres not stated) | 41.7 | 52.4 | 71.3 | 83.6 | – | 43 | 30 | 42.9 | – | – | 17.3 | 6.49 | – | 13.5 | 24.2 | – | 11.5 | 3.91 | 12.8 |
| C[C@H]1S[C@H](c2c(Cl)cccc2Cl)N2Cc3ccccc3N=C12 | 29.5 | 33.7 | 27.8 | 32.4 | 42.1 | – | > 100 | 26.1 | – | > 100 | – | – | – | – | – | – | – | – | – |
| Cc1cc(=O)[nH]c(NN2C(Cl)C(=O)C2c2cccc(Cl)c2)n1 (configuration not stated) | 98.9 | 40.9 | 67 | 35.4 | – | > 100 | > 100 | 87.2 | – | 41.5 | – | – | – | – | – | – | – | – | – |
| Nc1c(Cl)ncnc1NCCCNc1ncnc(Cl)c1N | > 100 | > 100 | > 100 | > 100 | – | > 100 | > 100 | > 100 | – | > 100 | – | – | – | – | – | – | – | – | – |
| COc1cccc(/C=N/[N-]C(N)=O)c1[O-].[Cu+2].[OH3+].c1ccc(-c2ccccn2)nc1 | > 100 | > 100 | > 100 | 74 | – | 41.2 | > 100 | 31.3 | – | 29.8 | – | – | – | – | – | – | – | – | – |
| O=C(NNc1ccccc1)/C(=C/c1ccc2c(c1)OCO2)NC(=O)c1ccccc1 | > 100 | > 100 | > 100 | > 100 | – | > 100 | – | > 100 | – | > 100 | – | – | – | – | – | – | – | – | – |
| CC(=O)NC(CC(C)C)C(=O)NC(Cc1ccccc1)C(=S)N1CCCC1 (configuration not stated) | > 100 | > 100 | > 100 | > 100 | – | > 100 | > 100 | > 100 | – | > 100 | – | – | – | – | – | – | – | – | – |
| CC(C)(C)OC(=O)NCCCCC(NC(=O)c1ccccc1)C(N)=O (configuration not stated) | – | > 100 | > 100 | > 100 | > 100 | > 100 | > 100 | > 100 | > 100 | – | – | – | – | – | – | – | – | – | – |
| COc1ccc2oc(=O)c(-c3csc(C)n3)cc2c1 | > 100 | > 100 | > 100 | > 100 | > 100 | > 100 | > 100 | 73.1 | – | 41.2 | – | – | – | – | – | – | – | – | – |
| O=C1C(CN2CCOCC2)CCCC1CN1CCOCC1 (configuration not stated) | 10.3 | 3.2 | 17.8 | 7.1 | 1.57 | 3.83 | 0.911 | 14.5 | – | 1.97 | – | – | – | – | – | – | – | – | – |
| O=P(O)(O)C1(P(=O)(O)O)CC1 | > 100 | > 100 | > 100 | > 100 | – | > 100 | > 100 | > 100 | – | – | – | – | – | – | – | – | – | – | – |
| Clc1ccc(OCc2nn3c(CCc4nnc5sc(COc6ccc(Cl)cc6)nn45)nnc3s2)cc1 | – | 95.8 | 60.2 | > 100 | 92.8 | > 100 | > 100 | – | 37.5 | – | – | – | – | – | – | – | – | – | – |
| COc1ccc(C(OCC2OC(n3ccc(NC(=O)c4ccccc4)nc3=O)CC2OP2(=S)SCCS2)(c2ccccc2)c2ccc(OC)cc2)cc1 (configuration not stated) | – | > 100 | – | 66.2 | > 100 | 90.3 | 44 | 34.9 | > 10 | – | – | – | – | – | – | – | – | – | – |
| CCOC(=O)C1=COC(C)(CCc2ccccc2)CC1=O (configuration not stated) | – | > 100 | > 100 | > 100 | > 100 | > 100 | > 100 | > 100 | > 100 | – | – | – | – | – | – | – | – | – | – |
| NNC(=O)c1cc(=O)[nH][nH]1 | – | > 100 | > 100 | > 100 | > 100 | – | > 100 | > 100 | > 100 | > 100 | – | – | – | – | – | – | – | – | – |
